Test results published in PubChem BioAssay AID1963831 (Molecular Pharmacology Branch, DTP, NCI, 2024).
Several values for one entry are separate records, joined by “and”; a condition that tells them apart may be missing. Equal values may be shown once.

Test system: 889142-216-R-J1-PDC complex spheroid viability
Experiment: Anticancer human tumor 889142-216-R-J1-PDC patient-derived bladder carcinoma cell line growth inhibition [POLQ]
Settings: for viability, T/C: stronger effect = lower value
Procedure: Multicellular complex tumor spheroid response to Polymerase (POL) inhibitors (novobiocin, ART-558, RP6685) in combination with a variety of drugs and investigational agents in selected tumor cell lines
The POL inhibitors (novobiocin, ART-558, and RP6685) were evaluated both individually and in combination with standard of care and investigational anticancer small molecules within a complex spheroid model of solid tumors. . Complex spheroids include a stromal component modeled by human endothelial cells (HUVEC) and fibroblasts modeled by human mesenchymal stem cells (MSCs). The concentration ranges selected for each drug and investigational agent were based upon clinically achievable concentrations if the clinical Cmax of the agent was known.
Compounds. The drugs and investigational agents: novobiocin (NSC847541), ART-558 (NSC835418), RP-6685 (NSC848927), peposertib (NSC802822), ceralasertib (NSC780249), elimusertib (NSC800525), camonsertib (NSC841442), AZD-1390 (NSC803789), olaparib (NSC753686), talazoparib (NSC767125), rucaparib (NSC756644), sotorasib (NSC818433), MRTX-1133 (NSC836407), SN-38 (NSC673596), topotecan (NSC609699), epotoside (NSC141540), doxorubicin (NSC123127), gemcitabine (NSC613327), 5-fluorouracil (NSC19893), paclitaxel (NSC125973), vemurafenib (NSC761431), MSA-2 (NSC828583), SN-011 (NSC837082), adavosertib (NSC754352), prexasertib (NSC758257), carboplatin (NSC241240) and oxaliplatin (NSC266046), were obtained from the National Cancer Institute (NCI) Developmental Therapeutics Program Chemical Repository (21). The FDA-approved anticancer drug set is available from the Developmental Therapeutics Program at https://dtp.cancer.gov/organization/dscb/obtaining/. […] The stock solutions were prepared in dimethyl sulfoxide (DMSO, Sigma-Aldrich, St. Louis, MO, cat. D2650), except for the platinum compounds which were prepared in saline (Quality Biological, Gaithersburg, MD, cat. 114-055-101), at 800-fold the tested concentration and stored at -70 degrees C prior to their use. All drugs and investigational agents were tested over a range starting from a high concentration at or near the clinical Cmax and decreasing in half-log increments. If the clinical Cmax for an agent had not been determined, the highest concentration tested was 10 microM, except for SN-38, which was tested at a high concentration of 1 microM.
Cell Culture. All cells were maintained in an incubator at 37 degrees C and 5% CO2 with 95% humidity. The PDC lines were cultured according to standard operating procedures established by the NCI PDMR (https://pdmr.cancer.gov). Table 3 of the manuscript, lists the cell lines along with the number of the three cell types plated to form the mct-spheroids and media for tumor cell growth. After thawing, all PDC lines, except 997537-175-T-J1-PDC and 415267-285-R-J2-PDC, were cultured in Matrigel-coated flasks prepared with a working solution of 1X Ham's F-12 nutrient mix, without supplementation (Thermo Fisher Scientific, cat. 11765054), 100 U/mL penicillin-streptomycin (Thermo Fisher Scientific, cat. 15140122), and 2.5% Matrigel (Corning Inc., Corning, NY, cat. 354248) for the first three passages. The two PDC lines 997537-175-T-J1-PDC and 415267-285-R-J2-PDC were cultured on uncoated flasks. The 857933-349-R-J2-PDC line was cultured in 6C/Colon 1B media containing advanced DMEM/F-12 (Thermo Fisher Scientific, cat. 12634028), 10 mM HEPES (Thermo Fisher Scientific, cat. 15630080), 1X GlutaMAX supplement (Thermo Fisher Scientific, cat. 35050061), 0.1 mg/mL primocin (InvivoGen, San Diego, CA, cat. ant-pm-2), 10% defined fetal bovine serum, heat inactivated (HyClone Laboratories Inc., Logan, UT, cat. SH30070.03HI), 50% L-WRN conditioned media (ATCC, cat. CRL-3276), 1.25 mM N-Acetyl-L-cysteine (Sigma-Aldrich, cat. A9165), 10 mM nicotinamide (Sigma-Aldrich, cat. N0636), 1X B-27 supplement (Thermo Fisher Scientific, cat. 17504044), 1X N-2 supplement (Thermo Fisher Scientific, cat. […]

[1] = compound alone, run of 01/08/2024
[2] = compound alone, run of 01/19/2024
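Also: spheroids exposed to compounds for seven days.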
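For viability, T/C in this document: 100% = DMSO vehicle control viability.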

SMILES | viability, T/C (compound 0.0316 µM) | viability, T/C (compound 0.1 µM) | viability, T/C (compound 0.316 µM) | viability, T/C (compound 1 µM) | viability, T/C (compound 3.16 µM) | viability, T/C (compound 10 µM) | IC50 (curve of compound) | IC50 [1] [nM] | viability, T/C (compound 0.00316 µM) | viability, T/C (compound 0.01 µM) | IC50 [2] [nM] | viability, T/C (compound 0.000316 µM) | viability, T/C (compound 0.001 µM)
CNCc1ccc(-c2[nH]c3cc(F)cc4c3c2CCNC4=O)cc1 | 113% and 99.8% and 88.3% | 91.7% and 96.3% and 114% | 86% and 112% and 90.9% | 88% and 96.9% and 104% | 87.2% and 83.7% and 97.5% | 76.9% and 70.9% and 70.5% | > 10000 nM | – | – | – | – | – | –
COC1C(OC(N)=O)C(O)C(Oc2ccc3c(O)c(NC(=O)c4ccc(O)c(CC=C(C)C)c4)c(=O)oc3c2C)OC1(C)C (stereo unspecified) | 109% [middle of 12 runs] | – | 94.6% [middle of 12 runs] | – | – | – | – | > 10000 | – | – | – | – | –
COc1cc(C2c3cc4c(cc3C(OC3OC5COC(C)OC5C(O)C3O)C3COC(=O)C23)OCO4)cc(OC)c1O (stereo unspecified) | 93.9% and 87.6% and 89.9% | 82.4% and 88.4% and 76.9% | 77.6% and 73% and 63.3% | 58.1% and 80.3% and 53.2% | 63.4% and 68.3% and 65.3% | 54.3% and 62.4% and 58.1% | > 10000 nM | – | – | – | – | – | –
COc1cc2cc(C(=O)CCC(=O)O)sc2cc1OC | 105% and 116% and 128% | 140% and 92% and 89.7% | 89.4% and 92.1% and 94.9% | 115% and 88.4% and 103% | 79.9% and 80.8% and 98% | 67.3% and 72.8% and 95.3% | > 10000 nM | – | – | – | – | – | –
COc1ccc([C@@H](O)c2cc(-c3ncnc4cc(N5CCOCC5)ccc34)c(F)cc2Cl)nn1 | 102% and 95.6% and 99.4% | 109% and 88.8% and 107% | 71.6% and 95% and 74.9% | 57.8% and 63.2% and 70.5% | 54.7% and 51.1% and 55.4% | 38.2% and 43.1% and 35.9% | > 10000 nM and 2580 nM and 3900 nM | – | – | – | – | – | –
COc1cccc(OCCCN)c1-c1cc(Nc2cnc(C#N)cn2)n[nH]1 | 42.5% and 62.6% and 50.3% | 34.7% and 51.5% and 47.2% | 37.9% and 47.7% and 42.3% | 34.4% and 42.8% and 40.6% | – | – | 14.1 nM and 81.8 nM and 41 nM | – | 93.9% and 84.5% and 84.6% | 53.2% and 89.7% and 71.7% | – | – | –
COc1cccc2c1C(=O)c1c(O)c3c(c(O)c1C2=O)CC(O)(C(=O)CO)CC3OC1CC(N)C(O)C(C)O1 (stereo unspecified) | 59.4% and 71.1% and 60.1% | 61.1% and 79% and 56.2% | 46.8% and 46.4% and 36.7% | 2.75% and 11.6% and 1.69% | 0.71% and 1.11% and 0.66% | 1% and 1.39% and 1.05% | 241 nM and 290 nM and 153 nM | – | – | – | – | – | –
Cc1cccc(N(C)C(=O)C2C(O)CCN2c2nc(C)cc(C(F)(F)F)c2C#N)c1 (stereo unspecified) | – | – | – | – | 94.3% [middle of 13 runs] | – | – | > 10000 | – | – | > 10000 | – | –
Cn1ncnc1[C@H]1c2n[nH]c(=O)c3cc(F)cc(c23)N[C@@H]1c1ccc(F)cc1 | 87.3% and 104% and 84.8% | 76.4% and 64.8% and 72.8% | – | – | – | – | > 100 nM | – | 84.9% and 99.1% and 83.2% | 93.2% and 89.5% and 78.9% | – | 116% and 120% and 92.5% | 81.2% and 90.7% and 78%
Nc1ccc(C#CCN(C(=O)Cc2ncc(C(F)(F)F)cc2C(F)(F)F)c2ccc(F)cc2)nn1 | – | 95.3% [middle of 13 runs] | – | – | – | 102% [middle of 13 runs] | – | – | – | – | > 10000 | – | –
Nc1ccn(C2OC(CO)C(O)C2(F)F)c(=O)n1 (stereo unspecified) | 62.2% and 68.3% and 56.9% | 47% and 40.3% and 54.1% | 44.5% and 47.4% and 45% | 44.4% and 48% and 49% | 44.2% and 42.1% and 40.3% | 37.1% and 38.8% and 31.7% | 86.1 nM and 73.7 nM and 318 nM | – | – | – | – | – | –
O=C(Nc1ccc(O)c(NS(=O)(=O)c2ccc(F)cc2)c1)c1ccc(-c2ccccc2)cc1 | 91.2% and 109% and 105% | 85.2% and 97.7% and 112% | 114% and 129% and 88% | 112% and 139% and 119% | 101% and 130% and 122% | 75.8% and 76.8% and 71.4% | > 10000 nM | – | – | – | – | – | –
O=C(c1cc(Cc2n[nH]c(=O)c3ccccc23)ccc1F)N1CCN(C(=O)C2CC2)CC1 | 99.2% and 94.9% and 95.6% | 83.3% and 99.5% and 98.7% | 101% and 83.8% and 88.6% | 81.2% and 111% and 91.4% | 83.2% and 97.8% and 72.5% | 60.4% and 69.9% and 69% | > 10000 nM | – | – | – | – | – | –
O=c1[nH]cc(F)c(=O)[nH]1 | 97% and 89.8% and 113% | 93.8% and 95.1% and 88.7% | 106% and 83.7% and 94.8% | 94.5% and 79.1% and 72.9% | 76.2% and 61.7% and 80.9% | 67.3% and 59.5% and 77.3% | > 10000 nM | – | – | – | – | – | –
